{
  "source": "paper PMC3404738",
  "about": "(International journal for parasitology, drugs and drug …, 2012)",
  "test_system": "A. ceylanicum",
  "experiment": "In vivo treatment in the hamster model of hookworm infection",
  "parameters": "species or system Ancylostoma ceylanicum",
  "conditions": "ABZ 10mg/kg once orally, hamsters, 20 DPI, vs infected controls",
  "data": [
    {"smiles": "CCCSc1ccc2nc(NC(=O)OC)[nH]c2c1", "note": "[Albendazole, reference compound]", "values": [
      {"measurement": "Intestinal worm burdens", "result": "eliminated intestinal worm burdens"}
    ]}
  ]
}
